Here are results for three compounds from patent publication US6265423A, “Aromatic polycyclic retinoid-type derivatives, method for preparing same, and use thereof for making pharmaceutical and cosmetic compositions” (priority 1996, dated 2001).

“Also recorded” adds a separate entry of the source.

The conditions of data set [1]: cited from earlier work.
For data set [2], the system named is T-47D lineage. The data set can be described thus: SAMBA image analysis test. Type of data set: cell-based, human. The source says:
The molecules which have shown themselves to be the most interesting in the MTT test have been evaluated in an image analysis test called SAMBA. In effect, the recent advances in the field of image analysis have allowed new approaches to the evaluation of different cellular kinetic parameters and the measurement of the distribution of chromatin. The data thereby provided are processed using different statistical tests.
The use of the Systeme d'Analyses Microscopiques a Balayage Automatique 2005 (SAMBA 2005, Alcatel TITN, France), (System of Microscopic Analyses with Automatic Sweep 2005) permits measurement of the influence of the compounds researched at three levels:
The cells in exponential growth are cultured on small glass slip plates (Kiss R. et al. Eur. J. Cancer, 27, 1268-1274, 1991) at the rate of from […] cells/ml (depending on the cellular line being considered) in 3 ml of minimum essential medium (MEM, Gibco). […]
The interest in the Feulgen coloration resides in the possibility of colouring the DNA in a specific and stoichiometric fashion (Giroud F., Cell, 44, 177-188, 1982; Kiss R. et al., J. Histochem. Cytochem., 41, 6, 935-945, 1993). For each experimental condition, 900 nuclei are analysed by the image analyser. […]
These 15 parameters are calculated by specific software, from: […]

Data set [3] relates to MCF-7 cells. The data set can be described thus: Effect on oestrogen-induced proliferation of MCF-7 cells. The class given is cell-based, human. The conditions noted are these: estradiol 10^-9 M.
Protocol: MCF-7 cells and HeLa are cultivated in DMFM with phenol red to which 5% foetal calf serum is added. […] The experimental tests are carried out in DMEM without phenol red to which foetal calf serum treated with dextran carbon is added at 3%. […] The experiments using the different retinoids are carried out sheltered from the light so as to avoid any isomerisation.
So as to test the anti-proliferation effect of the retinoids, growth experiments under oestrogenic conditions were carried out on cells MCF-7 and T-47D. These are the human oestrogen-dependent mammary cancer cells which express the receptor to RE oestrogens. The effect of the molecules is evaluated after 7 days of culture in oestrogenic conditions (estradiol 10^-9 M) by dosing the cellular DNA. The cells are distributed in 24 well plates at a density of 2×10^4 cells per well. The tests with the different retinoids are carried out in triplicate and the culture medium is changed after 4 days of growth.

As for `CC1=C(/C=C/C(C)=C/C=C/C(C)=C/C(=O)O)C(C)(C)CCC1` [CB16178, all-trans retinoic acid, reference compound], in data set [1] (chronic treatment), the “metabolism (in words)” value was “an inducer of its own metabolism”. For the same compound, the “adverse effects in chronic treatment (in words)” value in data set [1] was “powerful effect of hypervitaminose, of mucocutaneous toxicity and of teratogenecity”. On to `C/C(=C/c1ccc2c(c1)C(C)(C)CCC2(C)C)c1ccc(-c2nnn[nH]2)cc1` [CB92834], for which the “morphonuclear / anti-tumoral effect (in words)” value in data set [2] is reported as “not linked to a cytotoxic effect; also recorded: mediated by an activation of the cellular death and/or an inhibition of the proliferation due to the induction of the cellular differentiation”. On to `C/C(=C\c1ccc(C(=O)O)cc1)c1ccc2c(c1)C(C)(C)CCC2(C)C` [TTNPB, reference compound], for which the “effect on oestrogen-induced growth, MCF-7 (in words)” value in data set [3] was “stronger inhibiting effect than the natural ligands (all-trans RA and 9-cis RA) and than LGD1069”. In addition, in data set [2], the “morphonuclear / anti-tumoral effect (in words)” value is “strongly suggests a direct correlation between the cytotoxic effect of the molecule and its anti-tumoral activity; also recorded: exercises its anti-tumoral activity through a direct cytotoxic (cytocidal) effect”.
